SMILES strings stand for the structures. pIC50: −log10 of the molar value.

This passage reports IC50 results from patent US20250270209A1 (INTERLINE THERAPEUTICS, INC., priority 2022, published 2025).

In assay [1] the target is LRRK2 wild type enzyme (Homo sapiens, UniProt Q5S007). Description: Biochemical Assay: LRRK2 TR-FRET (LanthaScreen) kinase assay with LRRKtide substrate. To be noted: LRRK2 Inhibition, Table 8. Put shortly: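 TR-FRET detection (Tb-labelled phospho-LRRKtide antibody, EDTA stop, 30 min) followed a 120 min, 23 °C reaction of 3 nM wild-type human LRRK2 with LRRKtide (400 nM) and ATP (25 μM) in Tris pH 8.0. Compounds: 11-point 3-fold series from 10 μM, 15 min enzyme preincubation.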
Background: TR-FRET usually uses a lanthanide donor and a delayed reading to cut background.

Assay [2] addresses T1, wild type LRRK2 overexpressed in recombinant HEK-293T cells (Homo sapiens, UniProt Q5S007).
T1 construct: host or cells: HEK293T (transient transfection with pCMV-LRRK2 WT plasmid)
Description: pS935 LRRK2 Cell Assay (HTRF, phospho-LRRK2 Ser935). It is filed as cell-based. To be noted: LRRK2 Inhibition, Table 8, 2 hours compound incubation. Summed up: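 Phospho-Ser935 LRRK2 measured by two-antibody HTRF (Eu-cryptate donor, d2 acceptor; 665/615 nm ratio) after overnight detection at 23° C. Before lysis, transiently LRRK2-transfected HEK-293T cells were exposed 2 h at 37° C to a 9-point, 3-fold series from 10 μM, with DMSO at 0.2%.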

T1 sequence (Q5S007 whole entry): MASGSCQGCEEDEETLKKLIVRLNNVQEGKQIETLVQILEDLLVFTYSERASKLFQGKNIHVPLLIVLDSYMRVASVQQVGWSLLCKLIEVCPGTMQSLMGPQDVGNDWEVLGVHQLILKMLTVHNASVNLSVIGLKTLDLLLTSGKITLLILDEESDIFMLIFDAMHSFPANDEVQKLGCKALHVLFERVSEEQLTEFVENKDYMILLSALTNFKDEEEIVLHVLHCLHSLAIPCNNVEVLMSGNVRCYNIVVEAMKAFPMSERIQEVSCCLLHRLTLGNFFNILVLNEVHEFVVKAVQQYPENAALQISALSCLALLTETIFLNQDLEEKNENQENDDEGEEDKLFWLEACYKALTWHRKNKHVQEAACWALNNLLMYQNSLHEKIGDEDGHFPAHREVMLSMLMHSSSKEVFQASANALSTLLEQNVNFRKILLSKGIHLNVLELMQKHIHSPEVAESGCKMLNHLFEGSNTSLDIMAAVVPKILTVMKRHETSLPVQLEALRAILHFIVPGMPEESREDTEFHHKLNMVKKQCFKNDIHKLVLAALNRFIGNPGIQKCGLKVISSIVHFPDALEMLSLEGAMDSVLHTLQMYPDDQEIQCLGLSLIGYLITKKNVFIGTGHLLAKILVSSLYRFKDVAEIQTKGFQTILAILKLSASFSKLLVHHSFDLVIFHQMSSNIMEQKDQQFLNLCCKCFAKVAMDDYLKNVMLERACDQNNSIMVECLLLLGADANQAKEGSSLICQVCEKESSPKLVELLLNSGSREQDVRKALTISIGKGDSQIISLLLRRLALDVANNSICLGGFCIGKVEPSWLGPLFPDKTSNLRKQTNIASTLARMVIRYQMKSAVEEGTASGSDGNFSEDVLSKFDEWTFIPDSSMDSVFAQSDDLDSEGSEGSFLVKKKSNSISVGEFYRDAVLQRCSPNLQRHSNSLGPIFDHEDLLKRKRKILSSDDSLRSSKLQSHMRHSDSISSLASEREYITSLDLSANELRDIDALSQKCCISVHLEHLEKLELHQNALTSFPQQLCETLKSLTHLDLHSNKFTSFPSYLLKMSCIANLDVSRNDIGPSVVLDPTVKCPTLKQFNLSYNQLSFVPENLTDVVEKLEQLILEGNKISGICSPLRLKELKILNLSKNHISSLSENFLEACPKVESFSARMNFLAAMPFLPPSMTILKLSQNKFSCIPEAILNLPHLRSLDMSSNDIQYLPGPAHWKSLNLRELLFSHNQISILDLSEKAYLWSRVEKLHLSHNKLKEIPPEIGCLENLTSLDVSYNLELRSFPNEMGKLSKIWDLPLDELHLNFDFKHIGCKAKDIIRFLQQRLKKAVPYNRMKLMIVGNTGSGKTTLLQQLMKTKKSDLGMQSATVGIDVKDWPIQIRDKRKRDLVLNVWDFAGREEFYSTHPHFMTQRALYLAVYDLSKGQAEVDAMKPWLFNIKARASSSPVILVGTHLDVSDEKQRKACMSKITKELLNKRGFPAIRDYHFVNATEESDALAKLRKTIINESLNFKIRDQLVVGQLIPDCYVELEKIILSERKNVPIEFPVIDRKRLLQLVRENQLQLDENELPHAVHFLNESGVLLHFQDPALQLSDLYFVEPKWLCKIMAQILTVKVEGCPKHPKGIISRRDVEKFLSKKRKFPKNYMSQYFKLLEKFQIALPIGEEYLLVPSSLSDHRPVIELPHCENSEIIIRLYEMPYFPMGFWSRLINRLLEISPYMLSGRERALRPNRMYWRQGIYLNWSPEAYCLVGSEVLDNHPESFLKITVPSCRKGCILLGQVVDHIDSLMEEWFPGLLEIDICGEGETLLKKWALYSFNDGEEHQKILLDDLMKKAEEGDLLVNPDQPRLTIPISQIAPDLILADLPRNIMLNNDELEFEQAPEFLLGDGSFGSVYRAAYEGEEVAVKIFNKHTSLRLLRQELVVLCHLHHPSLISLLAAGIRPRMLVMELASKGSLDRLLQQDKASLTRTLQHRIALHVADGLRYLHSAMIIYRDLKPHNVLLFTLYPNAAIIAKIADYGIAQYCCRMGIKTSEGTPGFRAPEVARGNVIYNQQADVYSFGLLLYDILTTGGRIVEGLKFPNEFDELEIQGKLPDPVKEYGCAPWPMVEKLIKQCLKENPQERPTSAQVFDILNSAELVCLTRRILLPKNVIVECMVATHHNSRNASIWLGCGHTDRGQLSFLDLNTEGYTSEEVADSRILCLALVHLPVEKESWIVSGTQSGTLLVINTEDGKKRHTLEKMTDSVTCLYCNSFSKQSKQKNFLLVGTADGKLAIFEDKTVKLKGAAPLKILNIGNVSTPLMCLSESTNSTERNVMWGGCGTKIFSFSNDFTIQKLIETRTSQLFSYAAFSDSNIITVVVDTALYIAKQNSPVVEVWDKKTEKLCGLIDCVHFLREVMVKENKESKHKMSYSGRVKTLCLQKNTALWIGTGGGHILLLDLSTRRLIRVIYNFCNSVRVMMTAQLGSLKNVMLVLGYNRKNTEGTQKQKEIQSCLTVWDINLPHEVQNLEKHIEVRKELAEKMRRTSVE
Chain of LRRK2 wild type enzyme (Q5S007 whole entry): as above

The pIC50 is the IC50 on a negative log10 scale, so that one unit is a factor of ten. With `C[C@@H]1C[C@H](n2c(CC3CN(C(=O)c4cnn(C)c4)C3)nc3cnc4ccc(C#N)cc4c32)CCO1` [Compound 60, 2-{[1-(1-methyl-1H-pyrazole-4-carbonyl)azetidin-3-yl]methyl}-1-[(2R,4R)-2-methyloxan-4-yl]-1H-imidazo[4,5-c]quinoline-8-carbonitrile], the results for the pIC50 in assay [1] and in assay [2] were 8.37 and 5.81, respectively.

Consider `Cc1nc(CNC(=O)Cc2nc3cnc4ccc(C#N)cc4c3n2[C@@H]2CCO[C@H](C)C2)no1` [Compound 259, N-[(5-methyl-1,2,4-oxadiazol-3-yl)methyl]{3-[(2R,4R)-2-methyltetrahydro-2H-pyran-4-yl]-12-cyano-3,5,8-triazatricyclo[7.4.0.0^2,6]trideca-1(9),2(6),4,7,10,12-hexaen-4-yl}acetamide], for which the results for the pIC50 in assay [1] and in assay [2] were 8.87 and 6.88, respectively.

Consider `C[C@@H]1C[C@H](n2c(CC(=O)NC3CC3)nc3cnc4ccc(Cl)cc4c32)CCO1` [Compound 183, 2-{8-chloro-1-[(2R,4R)-2-methyloxan-4-yl]-1H-imidazo[4,5-c]quinolin-2-yl}-N-cyclopropylacetamide], for which the figures for the pIC50 in assay [1] and in assay [2] were 9.59 and 7.95, respectively.

For the compound `Cc1ccnc(C)c1NC(=O)Cc1nc2cnc3ccc(Cl)cc3c2n1[C@@H]1CCO[C@H](C)C1` [Compound 210, N-(2,4-dimethyl-3-pyridyl){3-[(2R,4R)-2-methyltetrahydro-2H-pyran-4-yl]-12-chloro-3,5,8-triazatricyclo[7.4.0.0^2,6]trideca-1,4,6,8,10,12-hexaen-4-yl}acetamide], the pIC50 in assay [1] was 9.42; in assay [2] it was 8.11.

For the compound `COc1cc(C2CC2)ncc1NC(=O)Cc1nc2cnc3ccc(C#N)cc3c2n1[C@@H]1CCO[C@H](C)C1` [Compound 213, N-(6-cyclopropyl-4-methoxy-3-pyridyl){3-[(2R,4R)-2-methyltetrahydro-2H-pyran-4-yl]-12-cyano-3,5,8-triazatricyclo[7.4.0.0^2,6]trideca-1,4,6,8,10,12-hexaen-4-yl}acetamide], the pIC50 in assay [1] was 9.39; in assay [2], 8.40.

Turning to `Cc1nocc1NC(=O)Cc1nc2cnc3ccc(C#N)cc3c2n1[C@@H]1CCO[C@H](C)C1` [Compound 238, N-(3-methyl-4-isoxazolyl){3-[(2R,4R)-2-methyltetrahydro-2H-pyran-4-yl]-12-cyano-3,5,8-triazatricyclo[7.4.0.0^2,6]trideca-1,4,6,8,10,12-hexaen-4-yl}acetamide], the pIC50 is 9.38 in assay [1] and 8.15 in assay [2].

As for `C[C@@H]1C[C@H](n2c(CC(=O)NC3CCCC3)nc3cnc4ccc(C#N)cc4c32)CCO1` [Compound 336, N-cyclopentyl{3-[(2R,4R)-2-methyltetrahydro-2H-pyran-4-yl]-12-cyano-3,5,8-triazatricyclo[7.4.0.0^2,6]trideca-1(9),2(6),4,7,10,12-hexaen-4-yl}acetamide], the results for the pIC50 in assay [1] and in assay [2] were 9.14 and 7.99, respectively.

Turning to `C[C@@H]1C[C@H](n2c(CC(=O)NCC3CCO3)nc3cnc4ccc(C#N)cc4c32)CCO1` (stereo partly drawn) [Compound 149, 2-{8-cyano-1-[(2R,4R)-2-methyloxan-4-yl]-1H-imidazo[4,5-c]quinolin-2-yl}-N-[(oxetan-2-yl)methyl]acetamide], the negative-log IC50 (pIC50) in assay [1] is 9.15; in assay [2], 7.13.

With `C[C@@H]1C[C@H](n2c([C@H]3CC(=O)N(c4cnn(C)c4)C3)nc3cnc4ccc(C#N)cc4c32)CCO1` [Compound 47, 2-[(3S)-1-(1-methyl-1H-pyrazol-4-yl)-5-oxopyrrolidin-3-yl]-1-[(2R,4R)-2-methyloxan-4-yl]-1H-imidazo[4,5-c]quinoline-8-carbonitrile], the pIC50 in assay [1] was 6.85; in assay [2], 5.01.

With `C[C@@H]1C[C@H](n2c(C3CCN(C(=O)C4CC4)CC3)nc3cnc4ccc(C#N)cc4c32)CCO1` [Compound 27, 2-(1-cyclopropanecarbonylpiperidin-4-yl)-1-[(2R,4R)-2-methyloxan-4-yl]-1H-imidazo[4,5-c]quinoline-8-carbonitrile], the values for the pIC50 in assay [1] and in assay [2] were 8.83 and 6.94, respectively.

In the case of `C[C@@H]1C[C@H](n2c([C@H]3CCCN(C(=O)C4CC4)C3)nc3cnc4ccc(C#N)cc4c32)CCO1` [Compound 29, 2-[(3S)-1-cyclopropanecarbonylpiperidin-3-yl]-1-[(2R,4R)-2-methyloxan-4-yl]-1H-imidazo[4,5-c]quinoline-8-carbonitrile], the figures for the pIC50 in assay [1] and in assay [2] were 6.87 and 5.33, respectively.

`CN1CC(n2c(C3CC(=O)N(CC4CC4)C3)nc3cnc4ccc(C#N)cc4c32)CCC1=O` (single isomer, unassigned) [Compound 139]: the pIC50 is 7.25 in assay [1] and 5.80 in assay [2].

Regarding `C[C@@H]1C[C@H](n2c(CC(=O)Nc3cnn(C)c3CO)nc3cnc4ccc(C#N)cc4c32)CCO1` [Compound 158, 2-{8-cyano-1-[(2R,4R)-2-methyloxan-4-yl]-1H-imidazo[4,5-c]quinolin-2-yl}-N-[5-(hydroxymethyl)-1-methyl-1H-pyrazol-4-yl]acetamide], the results for the pIC50 in assay [1] and in assay [2] were 9.34 and 6.57, respectively.

In the case of `Cc1oncc1NC(=O)Cc1nc2cnc3ccc(C#N)cc3c2n1[C@@H]1CCO[C@H](C)C1` [Compound 209, N-(5-methyl-4-isoxazolyl){3-[(2R,4R)-2-methyltetrahydro-2H-pyran-4-yl]-12-cyano-3,5,8-triazatricyclo[7.4.0.0^2,6]trideca-1,4,6,8,10,12-hexaen-4-yl}acetamide], the pIC50 was 9.37 in assay [1] and 7.88 in assay [2].

Turning to `CN1CC(n2c(C3CC(=O)N(CC4CC4)C3)nc3cnc4ccc(C#N)cc4c32)CCC1=O` (single isomer, unassigned) [Compound 140], the pIC50 in assay [1] was 7.38; in assay [2] it was under 5.00.

As for `C[C@@H]1C[C@H](n2c(CC(=O)NCc3cccc(C(F)(F)F)n3)nc3cnc4ccc(C#N)cc4c32)CCO1` [Compound 370, N-{[6-(trifluoromethyl)-2-pyridyl]methyl}{3-[(2R,4R)-2-methyltetrahydro-2H-pyran-4-yl]-12-cyano-3,5,8-triazatricyclo[7.4.0.0^2,6]trideca-1(9),2(6),4,7,10,12-hexaen-4-yl}acetamide], the pIC50 was 9.53 in assay [1] and 8.56 in assay [2].

As for `C[C@@H]1C[C@H](n2c([C@H]3CCN(S(C)(=O)=O)C3)nc3cnc4ccc(C#N)cc4c32)CCO1` [Compound 39, 2-[(3S)-1-methanesulfonylpyrrolidin-3-yl]-1-[(2R,4R)-2-methyloxan-4-yl]-1H-imidazo[4,5-c]quinoline-8-carbonitrile], the figures for the pIC50 in assay [1] and in assay [2] were 8.28 and 6.05, respectively.

In the case of `C[C@@H]1C[C@H](n2c(CC(=O)NC3CC3(F)F)nc3cnc4ccc(C#N)cc4c32)CCO1` (stereo partly drawn) [Compound 288, N-2,2-difluorocyclopropyl{3-[(2R,4R)-2-methyltetrahydro-2H-pyran-4-yl]-12-cyano-3,5,8-triazatricyclo[7.4.0.0^2,6]trideca-1,4,6,8,10,12-hexaen-4-yl}acetamide], the results for the pIC50 in assay [1] and in assay [2] were 9.19 and 7.41, respectively.

Turning to `C[C@@H]1C[C@H](n2c(C3CC(=O)N(C4CCOCC4)C3)nc3cnc4ccc(C#N)cc4c32)CCO1` (mixture of isomers) [Compound 64, 1-[(2R,4R)-2-methyloxan-4-yl]-2-[1-(oxan-4-yl)-5-oxopyrrolidin-3-yl]-1H-imidazo[4,5-c]quinoline-8-carbonitrile], the pIC50 was 8.43 in assay [1] and 6.50 in assay [2].

On to `C[C@@H]1C[C@H](n2c(CNS(C)(=O)=O)nc3cnc4ccc(C#N)cc4c32)CCO1` [Compound 21, N-({8-cyano-1-[(2R,4R)-2-methyloxan-4-yl]-1H-imidazo[4,5-c]quinolin-2-yl}methyl)methanesulfonamide], for which the pIC50 in assay [1] was 8.29; in assay [2] it was 6.19.

On to `COCC(C)(C)CNC(=O)Cc1nc2cnc3ccc(C#N)cc3c2n1[C@@H]1CCO[C@H](C)C1` [Compound 266, N-(3-methoxy-2,2-dimethylpropyl){3-[(2R,4R)-2-methyltetrahydro-2H-pyran-4-yl]-12-cyano-3,5,8-triazatricyclo[7.4.0.0^2,6]trideca-1,4,6,8,10,12-hexaen-4-yl}acetamide], for which the negative-log IC50 (pIC50) in assay [1] was 9.28; in assay [2], 8.10.

Take `C[C@@H]1C[C@H](n2c(CC(=O)Nc3cnn(C4CCC4)c3)nc3cnc4ccc(C#N)cc4c32)CCO1` [Compound 305, N-(1-cyclobutyl-4-pyrazolyl){3-[(2R,4R)-2-methyltetrahydro-2H-pyran-4-yl]-12-cyano-3,5,8-triazatricyclo[7.4.0.0^2,6]trideca-1,4,6,8,10,12-hexaen-4-yl}acetamide]: the pIC50 was 9.20 in assay [1] and 7.91 in assay [2].

Consider `Cc1nc(NC(=O)Cc2nc3cnc4ccc(C#N)cc4c3n2[C@@H]2CCO[C@H](C)C2)no1` [Compound 368, N-(5-methyl-1,2,4-oxadiazol-3-yl){3-[(2R,4R)-2-methyltetrahydro-2H-pyran-4-yl]-12-cyano-3,5,8-triazatricyclo[7.4.0.0^2,6]trideca-1(9),2(6),4,7,10,12-hexaen-4-yl}acetamide], for which the pIC50 in assay [1] was 9.29; in assay [2], 7.78.

Take `C[C@@H]1C[C@H](n2c(CC(=O)NC3CCOCC3)nc3cnc4ccc(Cl)cc4c32)CCO1` [Compound 192, 2-{8-chloro-1-[(2R,4R)-2-methyloxan-4-yl]-1H-imidazo[4,5-c]quinolin-2-yl}-N-(oxan-4-yl)acetamide]: the pIC50 was 9.41 in assay [1] and 7.88 in assay [2].
